Data taken from patent US12550899B2, “Topramezone derivative and use thereof” (priority 2023, dated 2026).

Tests used:
Format in all cases: in vivo
Acalypha australis = test: Laboratory bioactivity efficacy test 2.1 (foliar spray)
Excerpt: (§1) Refer to the “Pesticides guidelines for laboratory bioactivity tests Part 4: Foliar spray application test for herbicide activity, NY/T 1155.4-2006”.
(§2) • grassy weeds: Setaria viridis, Chloris virgata; • sedge: Cyperus rotundus; • Broadleaf weeds: Amaranthus retroflexus, Chenopodium album, Acalypha australis, Commelina communis, Convolvulus arvensis, Cirsium setosum, and Eclipta prostrata. 2.1.3 Test Conditions
(§3) The soil used for the test was a mixture of surface 20 cm loam and vermiculite, mixed in a volume ratio of 3:1 to form a culture soil. The test corn was cultured in a glass greenhouse with a temperature ranging from 25° C. to 35° C. and under natural light.
(§4) A measured quantity of weed seeds were sown in plastic pots with a diameter of 9 cm, and covered with 1-2 mm of soil. The ports were then placed in enamel trays filled with water, and watered by bottom irrigation. After sowing, the pots were transferred to the glass greenhouse for cultivation and growth.
(§5) Five dosages were set for Compound I, Compound II and the control herbicide Topramezone, which were 3.75, 7.5, 15, 30 and 60 grams of active ingredient per hectare respectively. In addition, a blank control was also prepared.
(§6) The required amount of the herbicide was accurately measured out, an appropriate amount of emulsifier and organic solvent were added to dissolve the herbicide, and then a certain amount of water was added therein until the herbicide was diluted to the required dosage by using the serial dilution method for standby.
(§7) The fresh weight of each treatment was surveyed 14 days after the application of the herbicide. The fresh weight control efficacy was calculated according to the following formula: fresh weight control efficacy (%)=(control fresh weight−treatment fresh weight)/control fresh weight×100.
(§8) A DPS statistical software was used to conduct regression analysis on the logarithmic values of the herbicide dosage and the probit values of the corn fresh weight control efficacy, and the correlation coefficient, GR50, GR90, and the 95% confidence interval were calculated.

Amaranthus retroflexus = test: as above
Excerpt: as §1, §2, §3, §4, §5, §6, §7, §8

Chenopodium album = test: as above
Excerpt: as §1, §2, §3, §4, §5, §6, §7, §8

Chloris virgata = test: as above
Excerpt: as §1, §2, §3, §4, §5, §6, §7, §8

Cirsium setosum = test: as above
Excerpt: as §1, §2, §3, §4, §5, §6, §7, §8

Commelina communis = test: as above
Excerpt: as §1, §2, §3, §4, §5, §6, §7, §8

Convolvulus arvensis = test: as above
Excerpt: as §1, §2, §3, §4, §5, §6, §7, §8

Cyperus rotundus = test: as above
Excerpt: as §1, §2, §3, §4, §5, §6, §7, §8

Eclipta prostrata = test: as above
Excerpt: as §1, §2, §3, §4, §5, §6, §7, §8

Setaria viridis = test: as above
Excerpt: as §1, §2, §3, §4, §5, §6, §7, §8

Corn (Sweet Corn) = test: Corn safety laboratory test; conditions: in vivo
Procedure: (§9) Three corn varieties: Zhengdan 958, white waxy corn, and sweet corn (Runhua sweet corn).
as §3
(§10) A measured quantity of corn seeds were sown in plastic pots with a diameter of 15 cm, and covered with 2-3 cm of soil. The ports were then placed in enamel trays filled with water, and watered by bottom irrigation. After sowing, the pots were transferred to the glass greenhouse for cultivation and growth.
(§11) In the corn safety test, dosages were set for the two Compounds (Compound I of the present invention and Compound II of the present invention) and the control herbicide Topramezone, which were 15, 30, 60, and 120 grams of active ingredient per hectare respectively. In addition, a blank control was also prepared.
as §6
(§12) Corn stems and leaves were uniformly sprayed at the 3-4-leaf stage.
(§13) The ASS-3 automatic control spraying system with a fan-shaped nozzle was used indoors for herbicide application. Depending on the nozzle pressure and flow rate, 50 mL of herbicide solution was applied to a spraying area of 1.1 m^2 (which was equivalent to the water consumption of 30 L per mu). The system's operating speed was calibrated. The plastic pots to be treated were arranged evenly on the spraying platform to ensure uniform treatment. The spray pressure was set to 0.35 MPa, and the flow rate of the fan-shaped nozzle was set to 800 mL/min. The spraying was carried out in sequence from the low dosage to the high dosage. Each treatment was repeated three times.
(§14) The herbicide was applied once. After spraying, the pots were air-dried for one day and then placed in the glass greenhouse. Regular watering was conducted to maintain moisture.
(§15) After application of the herbicide, whether there were any phytotoxic symptoms in the corn for each treatment was recorded. If yes, the phytotoxicity symptoms and grade were recorded in detail. 15 days after application, the fresh weight of the corn in each treatment was measured and the fresh weight control efficacy was calculated to assess the safety of the herbicide on the corn.
(§16) The treatment results were calculated according to the following formula: fresh weight control efficacy (%)=(control fresh weight−treatment fresh weight)/control fresh weight×100.

Corn (White Waxy Corn) = test: Corn safety laboratory test; conditions: in vivo
Procedure: as §9, §3, §10, §11, §6, §12, §13, §14, §15, §16

Corn (Zhengdan 958) = test: Corn safety laboratory test; conditions: in vivo
Procedure: as §9, §3, §10, §11, §6, §12, §13, §14, §15, §16

[1] = system: test weeds (grassy weeds, sedge, broadleaf weeds); test: Laboratory bioactivity efficacy test 2.1, symptoms on the test weeds; conditions: test 2.1 weeds
Excerpt: as §1, §2, §3, §4, §5, §6, §7

[2] = fresh weight control efficacy 14 days after application

COC(=O)OC(C)Oc1c(C(=O)c2ccc(S(C)(=O)=O)c(C3=NOCC3)c2C)cnn1C (stereo not shown) [Compound I, 1-((4-(3-(4,5-dihydroisoxazol-3-yl)-2-methyl-4-(methylsulfonyl)benzoyl)-1-methyl-1H-pyrazol-5-yl)oxy)ethyl methyl carbonate]
Control efficacy compared with Topramezone (in words) (Acalypha australis): significantly better control efficacy
Efficacy relative to that of Topramezone (Acalypha australis): approximately 2 times
GR50 (Acalypha australis; [2]): 2.42 g a.i./ha
GR90 (Acalypha australis; [2]): 7.55 g a.i./ha
Control efficacy compared with Topramezone (in words) (Amaranthus retroflexus): significantly better control efficacy
Efficacy relative to that of Topramezone (Amaranthus retroflexus): approximately 2 times
GR50 (Amaranthus retroflexus; [2]): 2.86 g a.i./ha
GR90 (Amaranthus retroflexus; [2]): 5.64 g a.i./ha
Control efficacy compared with Topramezone (in words) (Chenopodium album): significantly better control efficacy
Efficacy relative to that of Topramezone (Chenopodium album): approximately 2 times
GR50 (Chenopodium album; [2]): 1.22 g a.i./ha
GR90 (Chenopodium album; [2]): 5.98 g a.i./ha
Control efficacy compared with Topramezone (in words) (Chloris virgata): better control efficacy
Efficacy relative to that of Topramezone (Chloris virgata): approximately 1.5 times
GR50 (Chloris virgata; [2]): 2.25 g a.i./ha
GR90 (Chloris virgata; [2]): 10.81 g a.i./ha
Control efficacy compared with Topramezone (in words) (Cirsium setosum): significantly better control efficacy
Efficacy relative to that of Topramezone (Cirsium setosum): approximately 2 times
GR50 (Cirsium setosum; [2]): 5.56 g a.i./ha
GR90 (Cirsium setosum; [2]): 20.60 g a.i./ha
Control efficacy compared with Topramezone (in words) (Commelina communis): significantly better control efficacy
Efficacy relative to that of Topramezone (Commelina communis): approximately 2 times
GR50 (Commelina communis; [2]): 4.98 g a.i./ha
GR90 (Commelina communis; [2]): 16.38 g a.i./ha
Control efficacy compared with Topramezone (in words) (Convolvulus arvensis): significantly better control efficacy
Efficacy relative to that of Topramezone (Convolvulus arvensis): approximately 2 times
GR50 (Convolvulus arvensis; [2]): 1.81 g a.i./ha
GR90 (Convolvulus arvensis; [2]): 31.82 g a.i./ha
Control efficacy compared with Topramezone (in words) (Cyperus rotundus): better control efficacy
GR50 (Cyperus rotundus; [2]): 11.78 g a.i./ha
GR90 (Cyperus rotundus; [2]): 29.57 g a.i./ha
Control efficacy compared with Topramezone (in words) (Eclipta prostrata): significantly better control efficacy
Efficacy relative to that of Topramezone (Eclipta prostrata): approximately 2 times
GR50 (Eclipta prostrata; [2]): 2.30 g a.i./ha
GR90 (Eclipta prostrata; [2]): 11.62 g a.i./ha
Control efficacy compared with Topramezone (in words) (Setaria viridis): better control efficacy
Efficacy relative to that of Topramezone (Setaria viridis): approximately 1.5 times
GR50 (Setaria viridis; [2]): 3.96 g a.i./ha
GR90 (Setaria viridis; [2]): 11.42 g a.i./ha
Corn Growth Status (Corn (Sweet Corn)): Good, Normal Growth
Growth of corn / phytotoxicity (in words) (Corn (Sweet Corn)): normal, without causing any phytotoxicity
Corn Growth Status (Corn (White Waxy Corn)): Good, Normal Growth
Growth of corn / phytotoxicity (in words) (Corn (White Waxy Corn)): normal, without causing any phytotoxicity
Corn Growth Status (Corn (Zhengdan 958)): Good, Normal Growth
Growth of corn / phytotoxicity (in words) (Corn (Zhengdan 958)): normal, without causing any phytotoxicity
Symptoms on the test weeds [1]: clear pesticidal efficacy symptoms
